Test results from ChEMBL document CHEMBL3414572, “Identification of fused 16β,17β-oxazinone-estradiol derivatives as a new family of non-estrogenic 17β-hydroxysteroid dehydrogenase type 1 inhibitors” (Eur J Med Chem, 2015).
The source made the active and inactive calls. The calls are words filed in the database; no cut-off is given here.

Experiments:
[1] = biological target: T1, 17-beta-hydroxysteroid dehydrogenase type 1 (Homo sapiens) (UniProt P14061); experiment: Inhibition of 17 beta-HSD1 in human T47D cells assessed as inhibition of transformation of [14C]E1 to [14C]E2 at 10 uM after overnight incubation; type: cell-based
T1 sequence (whole entry): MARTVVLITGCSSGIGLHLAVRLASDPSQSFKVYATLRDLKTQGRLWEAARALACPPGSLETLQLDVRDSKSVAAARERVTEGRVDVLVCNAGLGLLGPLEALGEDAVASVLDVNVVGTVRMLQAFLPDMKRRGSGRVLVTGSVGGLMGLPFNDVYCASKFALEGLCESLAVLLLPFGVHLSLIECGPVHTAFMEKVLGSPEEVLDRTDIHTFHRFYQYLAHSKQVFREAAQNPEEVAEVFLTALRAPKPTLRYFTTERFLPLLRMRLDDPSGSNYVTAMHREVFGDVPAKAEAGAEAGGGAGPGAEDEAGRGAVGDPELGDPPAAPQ

[2] = test system: T47D; experiment: Estrogenic activity in human T47D cells assessed as cell proliferation at 0.5 uM incubated for 7 days with replacement of media in every 2 days by CellTitre-Glo assay; type: functional
[3] = biological target: T2, Very-long-chain 3-oxoacyl-CoA reductase (Homo sapiens) (UniProt Q53GQ0); experiment: Inhibition of 17 beta-HSD12 (unknown origin) at 10 uM
T2 sequence (whole entry): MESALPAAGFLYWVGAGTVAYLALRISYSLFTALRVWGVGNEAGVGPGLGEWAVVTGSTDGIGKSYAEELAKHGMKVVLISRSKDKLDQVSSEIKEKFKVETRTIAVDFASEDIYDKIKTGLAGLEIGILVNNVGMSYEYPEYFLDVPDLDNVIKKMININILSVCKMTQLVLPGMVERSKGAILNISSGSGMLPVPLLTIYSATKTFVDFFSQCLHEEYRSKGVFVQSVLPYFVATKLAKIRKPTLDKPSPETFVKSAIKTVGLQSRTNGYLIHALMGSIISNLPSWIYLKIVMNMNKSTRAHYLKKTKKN

[4] = biological target: T3, 17-beta-hydroxysteroid dehydrogenase type 2 (Homo sapiens) (UniProt P37059); experiment: Inhibition of 17 beta-HSD2 (unknown origin) transfected in HEK293 cells using [14C]E2 as substrate at 1 uM; type: cell-based
T3 sequence (whole entry): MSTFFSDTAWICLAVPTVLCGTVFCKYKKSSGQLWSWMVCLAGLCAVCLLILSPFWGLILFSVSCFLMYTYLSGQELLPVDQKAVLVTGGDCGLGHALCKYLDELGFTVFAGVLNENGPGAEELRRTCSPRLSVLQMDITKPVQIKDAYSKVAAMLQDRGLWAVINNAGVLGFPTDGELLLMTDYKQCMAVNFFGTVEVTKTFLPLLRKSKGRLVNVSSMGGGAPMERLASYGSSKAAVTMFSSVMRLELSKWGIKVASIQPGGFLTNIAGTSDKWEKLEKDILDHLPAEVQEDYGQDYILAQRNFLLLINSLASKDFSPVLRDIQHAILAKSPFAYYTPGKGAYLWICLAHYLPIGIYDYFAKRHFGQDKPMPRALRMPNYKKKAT

[5] = biological target: T4, 17-beta-hydroxysteroid dehydrogenase type 1 (Homo sapiens, UniProt P14061); experiment: Inhibition of 17 beta-HSD1 in human T47D cells assessed as inhibition of transformation of [14C]E1 to [14C]E2 after overnight incubation; type: cell-based
T4 sequence (P14061 whole entry): T1 sequence (whole entry)

[6] = biological target: T3, 17-beta-hydroxysteroid dehydrogenase type 2 (Homo sapiens); experiment: Inhibition of 17 beta-HSD2 (unknown origin) transfected in HEK293 cells using [14C]E2 as substrate at 10 uM; type: cell-based
[7] = test system: T47D; experiment: Estrogenic activity in human T47D cells assessed as cell proliferation at 0.1 uM incubated for 7 days with replacement of media in every 2 days by CellTitre-Glo assay; type: functional

For `CCCCCCCCN1C(=O)O[C@@H]2[C@@]3(C)CC[C@@H]4c5ccc(O)cc5CC[C@H]4[C@@H]3C[C@]2(O)[C@@H]1c1cccc(C(N)=O)c1`, which inhibition [1] is on record?
The inhibition was “Active”.

For `CCN1C(=O)O[C@@H]2[C@@]3(C)CC[C@@H]4c5ccc(O)cc5CC[C@H]4[C@@H]3C[C@]2(O)[C@@H]1c1cccc(C(N)=O)c1`, which inhibition [1] is on record?
Its inhibition is “Active”.

For `CCCCN1C(=O)O[C@H]2C(=C[C@H]3[C@@H]4CCc5cc(O)ccc5[C@H]4CC[C@]23C)[C@@H]1c1cccc(C(N)=O)c1`, which inhibition [1] is on record?
Its inhibition is “Active”.

And the Activity [2]?
The Activity was “inactive”.

And the inhibition [3]?
Its inhibition is “inactive”.

And the inhibition [4]?
Its inhibition is 10%.

And the IC50 [5]?
Its IC50 is 1.4 µM.

What about the inhibition [6] of the same compound?
Its inhibition is 15%.

What about the Activity [7] of the same compound?
The Activity was “inactive”.

With `C[C@]12CC[C@@H]3c4ccc(O)cc4CC[C@H]3[C@@H]1CC[C@@H]2O` [ESTRADIOL] as the compound, how does the growth at 0.5 µM ([2]; read-out: Activity) read?
Its growth at 0.5 µM is 380%.

And the growth at 0.1 µM ([7]; read-out: Activity)?
Its growth at 0.1 µM is 320%.

Which inhibition [1] does the source give for `CCCCCCCCN1C(=O)O[C@H]2C(=C[C@H]3[C@@H]4CCc5cc(O)ccc5[C@H]4CC[C@]23C)[C@@H]1c1cccc(C(N)=O)c1` here?
The inhibition was “Active”.

For `CCCCCCN1C(=O)O[C@H]2C(=C[C@H]3[C@@H]4CCc5cc(O)ccc5[C@H]4CC[C@]23C)[C@@H]1c1cccc(C(N)=O)c1`, which inhibition [1] is on record?
Its inhibition is “Active”.

Which inhibition [1] does the source give for `CCN1C(=O)O[C@H]2C(=C[C@H]3[C@@H]4CCc5cc(O)ccc5[C@H]4CC[C@]23C)[C@@H]1c1cccc(C(N)=O)c1` here?
Its inhibition is “Active”.

With `CCCCCCN1C(=O)O[C@@H]2[C@@]3(C)CC[C@@H]4c5ccc(O)cc5CC[C@H]4[C@@H]3C[C@]2(O)[C@@H]1c1cccc(C(N)=O)c1` as the compound, how does the inhibition [1] read?
Its inhibition is “Active”.

What about the Activity [2] of the same compound?
Its Activity is “Active”.

What about the IC50 [5] of the same compound?
Its IC50 is 6.6 µM.

With `CCCCN1C(=O)O[C@@H]2[C@@]3(C)CC[C@@H]4c5ccc(O)cc5CC[C@H]4[C@@H]3C[C@]2(O)[C@@H]1c1cccc(C(N)=O)c1` as the compound, how does the inhibition [1] read?
The inhibition was “Active”.
